Data on six compounds can be found in patent US20110251238A1, “PPAR AGONIST COMPOSITIONS AND METHODS OF USE” (BIOPHARMED, priority 2008, published 2011).

The test system of series [1] is HT-22, an immortalized mouse hippocampal cell line. The series can be described thus: Neuroprotection of HT-22 cells against toxic insults (calcein viability assay). The format is cell-based. The procedure: It is known (P. Aoun, 2003 Eur. J. Pharm. 472:65-71) that Peroxisome proliferator-activated receptors (PPARs) are involved in regulating many metabolic and inflammatory processes. The present invention explores the role of PPAR ligands in protecting neuronal cultures from toxic insults. For that purpose, the new PPAR agonists described in Example 1 were screened for their potential role as neuroprotective compounds. Experiments were performed using HT-22, an immortalized mouse hippocampal cell line, and SK-N-SH, a human neuroblastoma cell line. HT-22 was selected because it expresses PPARγ receptors. Cell viability against glutamate, hydrogen peroxide (H2O2), and serum deprivation insults was determined using a calcein assay. […] Additionally, compounds were protective even when administered simultaneously with glutamate, or for up to 8 h postglutamate insult.
HT-22, an immortalized mouse hippocampal cell line, and SK-N-SH, a human neuroblastoma cell line, were used. HT-22 cells were obtained from David Schubert (Salk Institute, San Diego, Calif.). The HT-22 line was originally selected from HT-4 cells based on glutamate sensitivity. SK-N-SH cells were obtained from ATCC (Manassas, Va.). HT-22 and SK-N-SH cells were grown to confluency in Dulbecco's modified essential medium (DMEM) and RPMI-1640 media, respectively, and supplemented with 10% charcoal/dextran-treated fetal bovine serum (FBS) and […] gentamicin at 37° C. under 95% air/5% CO2. HT-22 cells were plated at a density of 50,000 cells/ml (5000 cells/well), and SK-N-SH cells were plated at a density of 120,000-150,000 cells/ml (12,000-15,000 cells/well) in 96-well plates. In most studies, wells were pretreated with PPAR ligands over a wide dose range at various times prior to being subjected to either glutamate, hydrogen peroxide, or serum deprivation insults. In some studies, the insults were applied prior to the addition of the PPAR ligand.
The following analogues were tested on the HT22 cell line for their neuroprotective effect against glutamate insult and for their anti-inflammatory activity on relevant, models including HT22 cell line.

The test system of another series is SKMEL28 (human melanoma). In words: Growth inhibition, MTT colorimetric assay, SKMEL-28. Format: cell-based. To be noted: Homo sapiens, SK-MEL-28, 72 h; melanoma; 3 days with drug; means of six values; unit inferred; read-out: IC50 SKMEL-28. As to the method: (§1) Compounds that met the criteria for activity on KB3 cells were further tested for drug growth inhibitory activity in 5 carcinoma, 6 glioma and 3 melanoma cell lines, shown in Table 4. A549 (human lung adenocarcinoma epithelial), BxPC3 (pancreatic cancer), LoVo (colon cancer), MCF-7 (epithelial breast cancer), PC3 (human prostate cancer), Hs683 (human glioma), T98G (glioblastoma), U373 (human glioblastoma-astrocytoma), U138 MG (human glioma), epithelial-like), SKMEL28 (human melanoma), B16-F10 (mouse melanoma) and RhTP (rhabdomyosarcoma) cell lines were cultured in presence of the drugs for 3 days. The cytotoxic activity is expressed as (IC50). Inhibition of cell proliferation measured by the MTT colorimetric assay. The values reported in Table 4 are means of six distinct values. The standard errors are <5% as compared to the mean values.

Series [2] concerns KB3 (epitheloid lung cancer) cell lines. In words: Cell growth inhibition (cytotoxicity), MTS assay, KB3 cell line. Format: cell-based. To be noted: KB3, MTS assay, triplicate, read-out: KB3 IC50. The procedure:
Cell growth inhibition was determined by the MTS assay; the number of viable cells were proportional to the extent of formazan production in the presence or absence of drugs. […]

In a further series the test system is Host. The series can be described thus: Growth inhibition, MTT colorimetric assay, Host. To be noted: 72 h; 3 days with drug; means of six values; unit inferred; read-out: IC50 Host. The format is cell-based. As to the method:
as §1

A further series concerns U138 MG (human glioma). In words: Growth inhibition, MTT colorimetric assay, U138. Format: cell-based. To be noted: Homo sapiens, U138-MG, 72 h; glioma; 3 days with drug; means of six values; unit inferred; read-out: IC50 U138. As to the method: as §1
Another series concerns GL19. In words: Growth inhibition, MTT colorimetric assay, GL19. The format is cell-based. To be noted: GL19, 72 h; 3 days with drug; means of six values; unit inferred; read-out: IC50 GL19. As to the method: as §1
In another series the test system is KaKa. The series can be described thus: Growth inhibition, MTT colorimetric assay, KaKa. To be noted: 72 h; 3 days with drug; means of six values; unit inferred; read-out: IC50 KaKa. Format: cell-based. The procedure: as §1
Series [3] concerns U373 (human glioblastoma-astrocytoma). The series can be described thus: Growth inhibition, MTT colorimetric assay, U373. Format: cell-based. To be noted: Homo sapiens, U373 MG, 72 h; glioma; 3 days with drug; means of six values; unit inferred; read-out: IC50 U373. The procedure: as §1
A further series relates to caspases 3/7. The series can be described thus: Caspases 3/7 activation in HL60 cells (DEVD reagent). To be noted: 48 hours. The format is cell-based, human. From the text: (§2) 7223, using standard commercially available diagnostic kits (Calbiochem, USA). Assay reagents used were DEVD for caspases 3/7, […] for caspases 8, and LEHD for caspases 9. Moreover, colchicine was used as reference compound that induces this activity of caspases.

The test system of the next series is B16-F10 (mouse melanoma). In words: Growth inhibition, MTT colorimetric assay, B16F10. Format: cell-based. To be noted: Mus musculus, B16-F10, 72 h; melanoma; 3 days with drug; means of six values; unit inferred; read-out: IC50 B16F10. The procedure:
as §1

The next series relates to RhTP (rhabdomyosarcoma). In words: Growth inhibition, MTT colorimetric assay, RhTp. Format: cell-based. To be noted: 72 h; 3 days with drug; means of six values; unit inferred; read-out: IC50 RhTp. The procedure: as §1
A further series relates to caspases 9. The series can be described thus: Caspases 9 activation in HL60 cells (LEHD reagent). The format is cell-based, human. To be noted: 48 hours, 1 μM, 0.1 μM and 0.01 μM.
From the text: as §2

Series [4] relates to bloodstream forms of T. brucei and T. congolense. The series can be described thus: Trypanocidal activity in vitro, Alamar Blue assay. Format: cell-based, Trypanosoma brucei and T. congolense. To be noted: 48 h total incubation; for GI50: 50% growth inhibition, read-out: GI50; for MIC: lowest concentration at which all cells were killed, read-out: MIC. In a few lines:
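Bloodstream-form trypanosomes exposed to compounds in H2O for 24 h, then Alamar Blue added for a further 24 h (48 h total). Absorbance read at 550 nm with 630 nm reference; duplicate wells, three repeats. HL-60 cytotoxicity run alongside: 43 h plus 5 h dye.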

The next series concerns caspases 8. In words: Caspases 8 activation in HL60 cells (IEDT reagent). The format is cell-based, human. To be noted: 48 hours, 1 μM, 0.1 μM and 0.01 μM.
From the text: as §2

Series [5] deals with bloodstream forms of T. congolense STIB910. To be noted: T. congolense STIB910, identical experimental conditions, Merschjohann et al. (2001); cited from earlier work.
The subject of series [6] is bloodstream forms of T. brucei 427-221a. To be noted: identical experimental conditions, Merschjohann et al. (2001); cited from earlier work.

Converted amounts (≈) assume the structure as drawn. Like-named read-outs stand apart in the source and are kept apart here.

`Cc1ccc(CN(Cc2ccc(O)c3ncccc23)Cc2ccc(O)c3ncccc23)cc1` [BPM19,107, 5,5′-(4-(methyl)benzylazanediyl)bis(methylene)diquinolin-8-ol]: the “neuroprotection from H2O2 insult” value in [1] is on record as “dose-dependent neuroprotection”. In series [1], the “neuroprotection from glutamate insult” value is reported as “dose-dependent neuroprotection”. The half-inhibitory concentration (IC50) in the series on SKMEL28 (human melanoma) worked out at 4780 nM; in series [2] (Table 3A), 3 nM; in the series on Host, 2460 nM; with U138 MG (human glioma) it was 81 nM; with GL19, 1030 nM; in the series on KaKa, 710 nM. Also, the IC50 in [3] stood at 96 nM; in the series on B16-F10 (mouse melanoma), 88 nM; in the series on RhTP (rhabdomyosarcoma), 84 nM. The “activation of caspases 3/7” value in the series with caspases 3/7 (0.01 μM) is given as “neither BPM18,708 nor BPM19,107 has an effect”; with caspases 3/7 (0.1 μM), “strong effect”; with caspases 3/7 (1 μM), “strong effect”. The “activation of caspases 9” value in the series on caspases 9 was “no effect”. Further, the GI50 in series [4] was 310 ± 10 nM. Besides, in series [4], the MIC was 1 µM (≈ 0.436 µg/mL). The “activation of caspases 8” value in the series on caspases 8 is recorded as “no effect”.
Consider `CC(C)(C)OC(=O)N(Cc1cccc(C(F)(F)F)c1)Cc1ccc(O)c2ncccc12` [BPM19,132, Tert-butyl-(8-hydroxyquinolin-5-yl)methyl(3-(trifluoromethyl)benzyl)carbamate], for which the melting point is 114 to 116 °C. Further, the IC50 in series [2] (Table 3B) was found to be 1000 nM.
Regarding `CC(C)(C)OC(=O)N(Cc1cc(C(F)(F)F)cc(C(F)(F)F)c1)Cc1ccc(O)c2ncccc12` [BPM19,190, Tert-butyl-3,5-bis(trifluoromethyl)benzyl((8-hydroxyquinolin-5-yl)methyl)carbamate], the melting point lay in the range of 149 to 152 °C. The IC50 in series [2] (Table 3B) turned out to be 1000 nM.
Compound `Oc1ccc(CN(Cc2ccc(O)c3ncccc23)Cc2ccc(O)c3ncccc23)c2cccnc12` [BPM19,218, 5,5′,5″-nitrilotris(methylene)triquinolin-8-ol] returned a melting point of 175 to 178 °C. The 50% inhibitory concentration (IC50) in [2] (Table 3B) was greater than 10000 nM. In addition, in [4], the 50% growth inhibitory concentration (GI50) is 450 ± 100 nM and the MIC is 1 µM (≈ 0.489 µg/mL).
With `N=C(N)c1ccc(N=NNc2ccc(C(=N)N)cc2)cc1` [diminazene aceturate], the IC50 in series [5] is 500 nM.
`Cc1ccc(C(=O)Nc2ccc(S(=O)(=O)O)c3cc(S(=O)(=O)O)cc(S(=O)(=O)O)c23)cc1NC(=O)c1cccc(NC(=O)Nc2cccc(C(=O)Nc3cc(C(=O)Nc4ccc(S(=O)(=O)O)c5cc(S(=O)(=O)O)cc(S(=O)(=O)O)c45)ccc3C)c2)c1` [suramin]: the concentration for half-maximal inhibition (IC50) in series [6] is 400 nM.
